Experiments:
mPB-derived CD34+ cell = experiment: 7 day culture with AHR antagonists, expansion of CD34+ cells; type: cell-based, human; settings: 7 days
Description: To further explore the role of AHR signaling in HSCs two other AHR antagonists (alpha-naphthoflavone and CH-223191) were tested. Both compounds lead to dose dependent increases in the number of CD34^+ cells when cultured with mPB-derived CD34^+ cell for 7 days: inclusion of 1 μM CH223191 afforded a 2.2-fold expansion of CD34^+ cells; 0.75 μM α-naphthoflavone afforded a 1.9-fold expansion of CD34^+ cells while 0.75 μM Example 1 afforded a 3.4-fold expansion of total CD34^+ cells. […] Forty-eight hours following transduction, CD34+GFP^+ cells were purified by cell sorting and the levels of AHR were determined by qPCR. Both AHR targeting shRNAs led to decreases in AHR expression following transduction (81% with sh111 and 51% with sh242). These decreases were not seen in cells lacking GFP or in cells transduced with control virus.

[1] = system: CYP1B1 mRNA in mPB-derived CD34+ cells; experiment: TCDD-mediated CYP1B1 mRNA expression by qPCR; type: cell-based, human; settings: 3 nM; vehicle 0.01% toluene
Description: Further, the ability of Example 1 to block 2,3,7,8-tetrachlorodibenzo-p-dioxin (TCDD, dioxin)-mediated CYP1B1 mRNA expression by qPCR in mPB-derived CD34^+ cells was determined. Treatment with TCDD (3 nM) caused a 4.5-fold increase in the level of CYP1B1 mRNA compared with the vehicle control (0.01% toluene). […] To determine the effects of Example 1 in AHR transcription the ability of Example 1 to inhibit a dioxin-induced AHR dependent luciferase reporter gene assay was tested.

Structure (SMILES): Cc1ccccc1N=Nc1ccc(NC(=O)c2ccnn2C)c(C)c1 [CH223191, 2-methyl-2H-pyrazole-3-carboxylic acid (2-methyl-4-o-tolylazophenyl)amide]
- expansion of CD34+ cells (mPB-derived CD34+ cell; 1 μM): 2.2 fold

Structure (SMILES): Clc1cc2c(cc1Cl)Oc1cc(Cl)c(Cl)cc1O2 [TCDD, 2,3,7,8-tetrachlorodibenzo-p-dioxin]
- increase in the level of CYP1B1 mRNA compared with vehicle control [1]: 4.5 fold

Structure (SMILES): O=c1cc(-c2ccccc2)oc2c1ccc1ccccc12 [α-naphthoflavone, alpha-naphthoflavone]
- expansion of CD34+ cells (mPB-derived CD34+ cell; 0.75 μM): 1.9 fold

— US9580426B2, “Compounds that expand hematopoietic stem cells” (Novartis AG, priority 2008, dated 2017)
